Experimental data published in patent publication US20130109572A1, “HERBICIDAL COMPOSITIONS AND METHODS OF USE” (The Board of Trustees of the University of Alabama, priority 2010, published 2013).

Assays:
rat = conditions: cited from earlier work
[1] = tested on: white mustard (Sinapis alba L.); test: Growth chamber spray test, fresh mass of white mustard (Mecoprop ionic liquids); type: in vivo; conditions: 0.001 M spray in water/ethanol (1:2), 200 L/ha, 2 weeks after application; for Reduction of fresh mass (%): vs unsprayed control
Method: The research was conducted under controlled environmental conditions in a dedicated growth chamber. The test plant was white mustard (Sinapis alba L.). Seeds were sown into soil-filled containers equal to the depth of 1 cm. After producing first leave, only 5 plants were allowed to stay in each pot. After producing the 3rd leaf, the plants were sprayed with the ionic liquids studied using a Tee Jet 1102 sprayer, the sprayer moving above the plants at a constant speed of 3.1 m/s. The spray distance from the tips of the plant was 40 cm, the pressure of liquid in sprayer was 0.2 MPa, and a liquid in the expenditure per 1 ha was 200 L.
Examples of the ionic liquids described herein were dissolved in a solution of water and ethanol (1:2) in an amount corresponding to a concentration of 0.001 mol/L, or 0.533 g/L [DDA][MCPP-P], 0.520 g/L [BA][MCPP-P], and 0.546 g/L [DOM] [MCPP-P]. As a comparison, a commercial product containing 600 g of the herbicide Mecoprop-P in 1 L was used. After spraying the plants, the pots were placed back in a growth chamber at a temperature of 20° C. (±2° C.) and humidity of 50%. The illumination time was 16 hours per day.
After a period of 2 weeks, the plants were cut to the soil level and weighed (0.1 g accuracy). A study was carried out in 4 replications in a completely randomized setup. The reduction of plant fresh weight as compared to control (no sprayed plants) was measured.

[2] = tested on: common poppy (Papaver rhoeas); test: Growth chamber spray test, fresh weight reduction (Glyphosate ionic liquids); type: in vivo; conditions: 0.01 mol/L in water; 2 WAT
Method: Experiment in growth chamber: Temperature—20° C., humidity—60%, photoperiod (day/night hours)—16/8. The research was conducted under controlled environmental conditions in a dedicated growth chamber. The test plant was common poppy (Papaver rhoeas). The seeds were sown into soil-filled containers equal to the depth of 0.1 cm. After producing leaves, only 1 plant was allowed to stay in each pot. After producing the rosette, the plants were sprayed with the ionic liquids using a sprayer with Tee Jet 1102 nozzles. The sprayer was moving above the plants at a constant speed of 3.1 m/s. The spray distance from the tips of the plant was 40 cm, the pressure of liquid in sprayer was 0.2 MPa, and the liquid in the expenditure per 1 ha was 200 L.
The ionic liquids were dissolved in water in an amount corresponding to a concentration of 0.01 mol/L or 4.94 g/L [DDA][Glyphosate], 4.88 g/L [BA][Glyphosate]. As a comparison, a commercial product ROUNDUP™ containing 360 g of Glyphosate in 1 L was used. After spraying the plants, the pots were placed back in a growth chamber at a temperature of 20° C. (±2° C.) and humidity of 60%. The illumination time was 16 hours per day.
After a period of 2 weeks, the plants were cut right to the soil level and weighed (0.1 g accuracy). Fresh weight was used as the effect parameter. […]

[3] = tested on: common lambsquarters (Chenopodium album); test: Field test, visual effectiveness of weed eradication; type: in vivo; conditions: field plots, 4 WAT, mean estimate, solutions of 0.01 and 0.02 mol/dm^3, 100% = complete destruction
Method: (§1) Field test. The research was conducted in the Field Experimental Station of the Institute of Plant Protection in Winna Gora on the plots of dimensions 1.5 m×5 m. The test plants were common lambsquarters (Chenopodium album) and cornflower (Centaurea cyanus). The investigated ion pairs were alkyltrimethylammonium 3,6-dichloro-2-methoxybenzoate ([ATMA][Dicamba]) and didecyldimethylammonium 3,6-dichloro-2-methoxybenzoate ([DDA][Dicamba]).
(§2) Solutions of investigated ion pairs were prepared as follows: alkyltrimethylammonium 3,6-dichloro-2-methoxybenzoate [ATMA][Dicamba] and didecyldimethylammonium 3,6-dichloro-2-methoxybenzoate [DDA][Dicamba] were dissolved in a mixture of water and ethanol (1:1) in an amount corresponding to a concentration of 0.01 and 0.02 mol/dm^3. […] As controls, objects with no treatment were used and sprayed only with a solution of water and ethanol (1:1).
(§3) The procedures were performed using a sprayer equipped with a flat stream nozzles type Tee Jet 110 03 XR, with a steady pressure of 0.2 MPa and the expense of the liquid in use in 200 L per 1 hectare. During the procedure, the following weeds were at following developmental phases: common lambsquarters—from 4 to 10 leaves; and cornflower—a fully-formed rosette.
(§4) The effectiveness of weed eradication was evaluated visually by comparing the state of weeds on each plot treated with [DDA][Dicamba] and control solution.

[4] = tested on: cornflower (Centaurea cyanus); test: as above; type: in vivo; conditions: field plots, 4 WAT, mean estimate, solutions of 0.01 and 0.02 mol/dm^3, 100% = complete destruction
Method: as §1, §2, §3, §4

[5] = tested on: white mustard (Sinapis alba); test: Growth chamber spray test, fresh weight reduction (Dicamba ionic liquid); type: in vivo; conditions: for Fresh weight reduction (%) Sinapis alba: 2 WAT
[6] = tested on: common lambsquarters (Chenopodium album); test: as above; type: in vivo; conditions: 2 WAT
[7] = 0.001 mole/L in water/DMSO (2:1)
[8] = 0.002 mole/L in water/DMSO (2:1)
[9] = 0.004 mole/L in water/DMSO (2:1)

Molecule: O=C(O)COc1ccc(Cl)cc1Cl [Example 2.4-D, 2,4-dichlorophenoxyacetic acid]
- rat LD50 (rat): 639 to 764 mg/kg

Molecule: Cc1cc(Cl)ccc1OCC(=O)O [MCPA, 4-chloro-2-methylphenoxyacetic acid]
- rat LD50 (rat): 962 to 1470 mg/kg

Molecule: Benzalkonium (±)-2-(4-chloro-2-methylphenoxy)propionate [[BA][MCPP]]
- Fresh mass of white mustard [1]: 5.13 g
- Reduction of fresh mass (%) [1]: 57.8%

Molecule: Benzalkonium Glyphosate [[BA][Glyphosate]]
- Fresh weight reduction of Papaver rhoeas (%) [2]: 84.0%

Molecule: Didecyldimethylammonium 3,6-dichloro-2-methoxybenzoate [[DDA][Dicamba]]
- Effectiveness of Weed Eradication (%) Chenopodium album [3]: 92%
- Effectiveness of Weed Eradication (%) Centaurea cyanus [4]: 95%
- Fresh weight reduction (%) Sinapis alba [5, 7]: 6.8%
- Fresh weight reduction (%) Sinapis alba [5, 8]: 18.5%
- Fresh weight reduction (%) Sinapis alba [5, 9]: 27.1%
- Effect on the weight of Sinapis alba compared with neutral Dicamba ([5]; growth chamber, preliminary comparison): substantially more active than neutral Dicamba
- Fresh weight reduction (%) Chenopodium album [6, 7]: 16.7%
- Fresh weight reduction (%) Chenopodium album [6, 8]: 41.7%
- Fresh weight reduction (%) Chenopodium album [6, 9]: 45.7%

Molecule: Didecyldimethylammonium (+)-(R)-2-(4-chloro-2-methylphenoxy)propionate [[DDA][MCPP-P]]
- Fresh mass of white mustard [1]: 4.78 g
- Reduction of fresh mass (%) [1]: 60.7%

Molecule: Didecyldimethylammonium Glyphosate [[DDA][Glyphosate]]
- Fresh weight reduction of Papaver rhoeas (%) [2]: 78.3%

Molecule: Domiphen (+)-(R)-2-(4-chloro-2-methylphenoxy)propionate [[DOM][MCPP-P]]
- Fresh mass of white mustard [1]: 4.08 g
- Reduction of fresh mass (%) [1]: 66.5%
